Reference: ChEMBL document CHEMBL4052625, “The evaluation of 1,4-benzoquinones as inhibitors of human monoamine oxidase” (Eur J Med Chem, 2017)

Tests used:
[1] = target: T1, Amine oxidase [flavin-containing] A (Homo sapiens, UniProt P21397); assay: Irreversible inhibition of recombinant human MAO-A expressed in baculovirus infected BTI insect cell microsomes assessed as residual activity using kynuramine as substrate at 13 uM preincubated for 15 mins with subsequent dialysis for 24 hrs followed by substrate addition measured after 20 mins by fluorescence spectroscopy relative to negative control; conditions: read-out: INH
T1 sequence (P21397 whole entry): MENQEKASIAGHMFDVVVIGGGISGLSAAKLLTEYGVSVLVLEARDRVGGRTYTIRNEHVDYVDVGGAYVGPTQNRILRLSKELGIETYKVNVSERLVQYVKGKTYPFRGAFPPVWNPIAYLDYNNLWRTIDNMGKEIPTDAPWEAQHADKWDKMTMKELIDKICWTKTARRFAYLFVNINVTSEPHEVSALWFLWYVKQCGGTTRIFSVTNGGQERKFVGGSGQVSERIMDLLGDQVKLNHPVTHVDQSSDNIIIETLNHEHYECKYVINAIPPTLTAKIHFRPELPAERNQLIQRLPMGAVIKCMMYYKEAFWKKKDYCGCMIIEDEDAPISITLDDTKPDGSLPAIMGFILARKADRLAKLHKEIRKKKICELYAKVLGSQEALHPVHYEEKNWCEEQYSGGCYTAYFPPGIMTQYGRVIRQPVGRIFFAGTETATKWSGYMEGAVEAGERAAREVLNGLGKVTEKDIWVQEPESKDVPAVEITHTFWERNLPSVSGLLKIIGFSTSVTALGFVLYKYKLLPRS

[2] = target: T1, Amine oxidase [flavin-containing] A; assay: Inhibition of recombinant human MAO-A expressed in baculovirus infected BTI insect cell microsomes using kynuramine as substrate after 20 mins by fluorescence spectroscopy
[3] = target: T2, Amine oxidase [flavin-containing] B (Homo sapiens, UniProt P27338); assay: Inhibition of recombinant human MAO-B expressed in baculovirus infected BTI insect cell microsomes using kynuramine as substrate after 20 mins by fluorescence spectroscopy
T2 sequence (P27338 whole entry): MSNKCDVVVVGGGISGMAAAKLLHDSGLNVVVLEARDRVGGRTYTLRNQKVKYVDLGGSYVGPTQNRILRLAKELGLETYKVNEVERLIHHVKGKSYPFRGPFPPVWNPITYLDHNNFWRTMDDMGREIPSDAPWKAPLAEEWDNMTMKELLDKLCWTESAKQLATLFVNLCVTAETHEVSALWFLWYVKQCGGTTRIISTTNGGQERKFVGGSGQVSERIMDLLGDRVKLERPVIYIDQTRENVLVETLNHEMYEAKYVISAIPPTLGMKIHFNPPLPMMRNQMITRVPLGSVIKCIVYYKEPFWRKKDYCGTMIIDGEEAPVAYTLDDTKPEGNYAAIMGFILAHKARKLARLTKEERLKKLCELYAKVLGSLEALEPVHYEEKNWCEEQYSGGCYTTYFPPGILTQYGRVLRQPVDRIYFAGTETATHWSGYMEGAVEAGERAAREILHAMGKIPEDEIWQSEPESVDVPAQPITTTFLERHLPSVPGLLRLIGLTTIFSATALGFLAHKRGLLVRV

Homo sapiens = species: Homo sapiens; assay: Selectivity index, ratio of IC50 for recombinant human MAO-B to IC50 for recombinant human MAO-A expressed in baculovirus infected BTI insect cell microsomes
[4] = target: T1, Amine oxidase [flavin-containing] A; assay: Competitive inhibition of human brain mitochondria MAO-A using kynuramine as substrate by Lineweaver-Burk analysis
[5] = target: T2, Amine oxidase [flavin-containing] B; assay: Non-competitive inhibition of human brain mitochondria MAO-B using kynuramine as substrate by Lineweaver-Burk analysis
[6] = target: T2, Amine oxidase [flavin-containing] B; assay: Inhibition of human liver mitochondria MAO-B using 1-methyl-4-phenyl-1,2,3,6-tetrahydropyridine as substrate after 15 mins by spectrophotometric analysis
[7] = target: T1, Amine oxidase [flavin-containing] A; assay: Inhibition of human gastrointestinal mitochondria MAO-A using 1-methyl-4-(1-methylpyrrol-2-yl)-1,2,3,6-tetrahydropyridine as substrate after 30 mins by spectrophotometric analysis

| Structure (SMILES) | activity at 13 µM [1] | IC50 [2] | IC50 [3] | Ratio IC50 (Homo sapiens) | Ki [4] | Ki [5] | Ki [6] | Ki [7] |
| --- | --- | --- | --- | --- | --- | --- | --- | --- |
| C#CCN(C)Cc1ccccc1 [PARGYLINE] | 0.1 to 1.6% |  |  |  |  |  |  |  |
| O=C1C=CC(=O)C(C2CCCC2)=C1 |  | 5.84 µM | 17.8 µM | 3 |  |  |  |  |
| O=C1C=CC(=O)C=C1 [BENZOQUINONE] |  | 4.82 µM | 10.2 µM | 2.1 | 9.62 µM | 20.3 µM |  |  |
| O=C1C=CC(=O)C(c2ccccc2)=C1 |  | 5.03 µM | 7.87 µM | 1.6 |  |  |  |  |
| O=C1C=CC(=O)C(Cc2ccccc2)=C1 |  | 5.37 µM | 23.2 µM | 4.3 |  |  |  |  |
| O=C1C=CC(=O)C(OCc2ccccc2)=C1 |  | 13.2 µM | 3.69 µM | 0.3 |  |  |  |  |
| CC1=C(C)C(=O)c2cc(C)ccc2C1=O |  |  |  |  |  |  | 6 µM | 3 µM |
